Here are results for one molecule from US7928264B2, “Aminoalcohol derivatives” (Astellas Pharma Inc., priority 2004, dated 2011).

The test system of this assay is increase in intravesical pressure induced by carbachol in anesthetized dog. Kind of assay: Effect on the increase in intravesical pressure induced by carbachol in anesthetized dog. Type of assay: in vivo. As to conditions: 0.032 mg/kg, administered intradermally 30 minutes before carbachol (1.8 μg/kg); female Beagle dogs under halothane anesthesia. The method, then:
Effect on the increase in intravesical pressure induced by carbachol in anesthetized dog
Female Beagle dogs weighing 8.0-15.0 kg were fasted for 24 hours and maintained under halothane anesthesia. A 12F Foley catheter was lubricated with water soluble jelly, inserted into the urethral orifice, and advanced approximately 10 cm until the balloon tip was placed well inside the bladder. The balloon was then inflated with 5 ml of room air and catheter slowly withdrawn just part the first resistance that was felt at the bladder neck. Urine was completely drained out through the catheter, and 30 ml of biological saline was infused. The catheter was connected to pressure transducer, and intravesical pressure (IVP) was continuously recorded. The test compound was administered intradermally at 30 minutes before the administration of carbachol (1.8 μg/kg). Percent inhibition of IVP increase by test compound was calculated by dividing IVPa (IVP increase induced by carbachol after test compound administration) by IVPb (IVP increase induced by carbachol just before test compound administration).

SMILES strings stand for the structures.

Consider `Cl.O=C(NS(=O)(=O)CCO)c1ccc(-c2ccc(CCNC[C@H](O)c3ccccc3)cc2)cc1OC1CCCCC1` [Test Compound (1), 3-(Cyclohexyloxy)-N-[(2-hydroxyethyl)sulfonyl]-4′-[2-[[(2R)-2-hydroxy-2-phenylethyl]amino]ethyl]-4-biphenylcarboxamide hydrochloride], for which the “Percent inhibition of IVP increase” value is 78%.
